Experimental data as given in patent US20050112573A1, “Method of detecting toxic substance” (priority 2001, published 2005).

Tested on: yeast genes (level of expressed mRNA)
Assay: DNA chip analysis of expressed mRNA of yeast genes after 2 h culture with a toxic chemical substance
Assay type: cell-based, Saccharomyces cerevisiae S288C
In short: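 S. cerevisiae S288C in YPD at 25 °C was exposed at log phase for 2 h to a growth-inhibiting, non-lethal concentration of the chemical. Poly(A) mRNA was reverse-transcribed with Cy3- or Cy5-dUTP and hybridized to a whole-genome yeast DNA chip (65 °C, >12 h). Values are fluorescence ratios versus untreated cells.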

Measured: The level of expressed mRNA in the presence of chemical substance/The level of expressed mRNA in the absence of chemical substance

O=[N+]([O-])c1cc[n+]([O-])c2ccccc12 [(5), 4-nitroquinolin-N-oxide]
1.4: yeast gene YDR115W | yeast gene YDR358W | yeast gene YLR250W | yeast gene YLR429W | yeast gene YNR069C | yeast gene YPL089C
2.8: yeast gene YKL139W
1.5: yeast gene YER039C | yeast gene YHR004C | yeast gene YHR071W | yeast gene YLR362W | yeast gene YNL333W | yeast gene YOR261C
1.9: yeast gene YKL013C
2.0: yeast gene YOR259C
1.7: yeast gene YDR055W | yeast gene YER130C | yeast gene YFL028C | yeast gene YPR103W
1.8: yeast gene YDL008W | yeast gene YNR010W
1.2: yeast gene YCL027W | yeast gene YCR004C | yeast gene YCR071C | yeast gene YDR084C | yeast gene YFL043C | yeast gene YGR136W | yeast gene YGR213C | yeast gene YJL073W | yeast gene YLR391W | yeast gene YNL007C | yeast gene YNL093W | yeast gene YOR117W | yeast gene YOR185C | yeast gene YPL109C | yeast gene YPL154C
0.7: yeast gene YBL078C | yeast gene YDR388W | yeast gene YDR510W | yeast gene YEL042W | yeast gene YGR189C | yeast gene YKL039W | yeast gene YMR104C | yeast gene YMR275C | yeast gene YOL013C | yeast gene YOR157C | yeast gene YOR181W
0.6: yeast gene YIL123W | yeast gene YKL096W
1.1: yeast gene YBL043W | yeast gene YBR214W | yeast gene YCR088W | yeast gene YJL089W | yeast gene YJR004C | yeast gene YKL193C | yeast gene YLR120C | yeast gene YLR356W | yeast gene YOR036W | yeast gene YOR124C | yeast gene YOR132W | yeast gene YOR288C
1.3: yeast gene YBL005W-A | yeast gene YDR104C | yeast gene YER107C | yeast gene YGR257C | yeast gene YHR139C | yeast gene YHR142W | yeast gene YJL116C | yeast gene YJR086W | yeast gene YKL041W | yeast gene YLR327C | yeast gene YMR276W | yeast gene YPR108W
0.9: yeast gene YDL238C | yeast gene YDR085C | yeast gene YDR315C | yeast gene YKL008C | yeast gene YKL165C | yeast gene YMR094W | yeast gene YMR226C | yeast gene YNL006W | yeast gene YOR383C
0.5: yeast gene YCL020W
1.6: yeast gene YBL041W | yeast gene YDR432W | yeast gene YLR136C | yeast gene YMR219W | yeast gene YOL164W
1.0: yeast gene YAR010C | yeast gene YDR259C | yeast gene YDR481C | yeast gene YGL158W | yeast gene YGL229C | yeast gene YLR178C | yeast gene YMR004W | yeast gene YOR355W
0.8: yeast gene YEL066W | yeast gene YIL140W | yeast gene YOR198C | yeast gene YPL149W
